“Also recorded” adds a separate entry of the source.
How the values were obtained:
[1] = mouse, in vivo, iv
Method: The nonconventional steroidal liposome composition prepared according to Example III was administered intravenously and the ability of mouse organs to bind and/or take up the radiolabel was studied.
All experiments were carried out using groups of male ICR mice weighing approximately 25 grams (the weight of any individual mouse was not more than 10% different from the group mean weight). Doses of nonconventional liposomes containing beclomethosome dipropionate spiked according to Example III were administered to a mouse via a tail vein. At the end of the experimental period mice were lightly anesthesized with diethyl ether and a 1 ml blood sample was rapidly removed from the jugular vein with a heparinized syringe. […]
All organ and carcass samples were stored at -20° prior to analysis. […] Dried samples were analyzed for total ^14 C radioactivity by scintillation counting following combustion in a Packard Sample Oxidizer, Combustions were carried out in series, with the inclusion of appropriate blanks. A duplicate sample from every third animal was analyzed to monitor the combustion reproducibility. […] Total radioactivity in liver, spleen, carcass and 1.0 ml blood was calculated and converted to percent of encapsulated dose. […] Total radioactivity in vivo was estimated by summing values for liver, spleen, total blood volume and carcass.

[2] = Intrathecal administration: drug in cranial and spinal compartments and cerebrospinal fluid; details: 50 ul, 20 mg/ml
[3] = Plasma pharmacokinetics of 14C-BDP after i.v. injection or intratracheal instillation; format: in vivo, male Sprague-Dawley rats; details: rat
Method: In order to determine the rate of absorption of the steroidal drug into the plasma after intratracheal administration, various formulations containing either the free steroid or steroid encapsulated in liposomes were prepared and tested.
The free drug control was administered intravenously to provide relative basis for measurement of bioavailability. […] The resulting plasma profiles, given in FIG. 1, illustrate the physiological removal of steroid from the blood circulation. […] As will be seen from FIG. 2, the rate of absorption of free steroid from lungs to the plasma is rapid and the physiological removal from the plasma follows the same course as that of the free drug. […] Thus, the rate of absorption from lungs to plasma of free steroid and steroid encapsulated in conventional liposomes is not much different and follows similar curve.
Plasma and lung levels of radiolabel were measured as previously described. The decrease in plasma concentration versus time following free drug administration was biphasic (FIG. 4).

[4] = TLC assay of lung samples for metabolism of BDP before absorption; format: in vivo, rats; details: thin layer chromatographic assay
[5] = in vivo; cited from earlier work
[6] = rat, in vivo
Source text: The resulting slopes and intercepts were used as estimates of the absorption rate constant (Ka) and the amount of drug in the lungs at zero time, respectively. […] These later values relate to the elimination of radiolabel already released from the liposomes and distributed to the lungs. The amount of drug in the lungs at time zero can be used to determine the amount of free drug in the formulation, since free drug is very rapidly absorbed from the lungs (Dose=free drug+amount in lungs at t=0). This amount also includes any liposome associated drug that was rapidly released ("burst" effect).
All studies were performed in male Sprague-Dawley rats weighing 250 to 450 g. After fasting for 16 hours, animals were anesthetized by i.m. injection of ketamine (25 mg/kg), xylazine (5 mg/kg) and acepromazine (0.5 mg/ml). During the procedure the animal's body temperature was maintained with a 37° C. heating pad. Additional anesthetic was administered as required, using half the original dose. A midline incision was made in the neck and the right jugular vein and left carotid artery were cannulated with short lengths of polyethylene tubing to which a 23 ga Luer stub adapter (Clay Adams #7565) and plastic 3-way stopcock (Argyle #173518) were attached. Blood samples (0.5-4 ml) were removed from the carotid arterial cannula after first flushing with fresh blood to clear the line. […]
Blood samples were removed at four time points during the study from each rat, centrifuged, and the serum was removed and stored frozen (-20°C.) until assayed. […] The homogenate was briefly centrifuged and measured aliquots of the supernate removed to Teflon-stoppered glass tubes which were stored at -20° C. or below until assayed.
The actual dose administered in each study was determined by measurement of duplicate dose control samples of the formulation which were delivered by the same apparatus used in dosing the animals.
In some studies, the plasma concentration of radiolabel was also measured over the course of the experiment.

[7] = Partition coefficient between octanol and phosphate buffer saline; format: physicochemical; details: pH 7.4

## C[C@H]1C[C@H]2[C@@H]3CCC4=CC(=O)C=C[C@]4(C)[C@@]3(Cl)[C@@H](O)C[C@]2(C)[C@@]1(O)C(=O)CO [Free beclomethasone, beclomethasone]
[1]
  persistence in plasma: disappears rapidly from the plasma

## C[C@]12CCC(=O)C=C1CC[C@@H]1[C@@H]2C(=O)C[C@@]2(C)[C@H]1CC[C@]2(O)C(=O)CO [free cortisone, cortisone]
[2]
  time to almost complete disappearance from cranial or spinal compartments: ≤ 2.8 h
  time to elimination from cerebrospinal fluid: ≤ 2.8 h

## CCC(=O)OCC(=O)[C@@]1(OC(=O)CC)[C@@H](C)C[C@H]2[C@@H]3CCC4=CC(=O)C=C[C@]4(C)[C@@]3(Cl)[C@@H](O)C[C@@]21C [BDP, beclomethasone dipropionate]
[3]; intratracheal instillation, listed as free BDP
  absorption from lungs (in words): rapid; also recorded: quickly removed from the lungs into plasma
[3]; compared with free drug
  plasma kinetics (in words): biphasic
[4]
  metabolism of BDP prior to leaving the lungs: no detectable metabolism of BDP prior to leaving the lungs
[5]
  secondary adverse reactions: localized infection of the mouth and pharynx with Candida albicans or Aspergillus niger, hoarseness and dry mouth
[6]
  apparent half-life in lungs (elimination of radiolabel already released, not absorption): 3.0 h
  drug absorbed before the first time point: over 98%
[6]; iv
  radiolabel removed/absorbed from the lungs: 99.7%
[7]
  BDP associated with the octanol (octanol/phosphate buffer saline partition): 95%

From patent publication US5043165A, “Novel liposome composition for sustained release of steroidal drugs” (priority 1988, dated 1991)
